The subject of experiment [1] is cardiac lipid peroxidation. The experiment in a line: In vitro testing of antiperoxidative agents (cardiac lipid peroxidation). The format is biochemical. As to conditions: rat cardiac liposomes, 60 minutes, 37° C., pH 7.4; read-out: Inhib. of Lipid Peroxidation IC50. The procedure: The test system employs hypoxanthine-xanthine oxidase (XO)-Fe^3+. ADP as the free radical generator and purified, native rat-heart membrane phosphoglyceride in Hepes-KCl buffer, pH 7.4, as the substrate. Inhibition of superoxide-dependent, iron-promoted lipid peroxidation in the linear reaction phase (after 1 hour of reaction) is measured as the net formation of thiobarbituric acid (TBA)-reactive material. In this system, the TBA-reactive material, isolated by HPLC, is exclusively (>95%) malondialdehyde (MDA), a fragmentation end-product arising from fatty acyl hydroperoxides and cyclic endoperoxides.
Conscious male Sprague-Dawley rats (~275 g) maintained on a normal rodent diet were decapitated. The hearts were rapidly removed and perfused via the aorta with ice-cold 10 mM Hepes buffer, pH 7.4. The aorta and atria were removed, and the ventricular tissue was blotted and weighed (wet weight). The hearts were minced on ice with scissors and finally homogenized (100 mg tissue/ml ice-cold buffer) for 15 seconds (3×5 seconds) with a Tekmar Tissumizer at "maximal" setting. The homogenate was filtered through 4-ply cheesecloth, and homogenate lipids were extracted and purified by a modified Bligh-Dyer procedure (M. D. Marshall and M. Kates, Biochem. Biophys. Acta 260, 558 (1972). The cardiac lipids were stored in CHCl3 under nitrogen at -20° C.
Liposomes were prepared from extracted and purified, native rat heart cardiac lipid and were used as substrate for free-radical attack. Cardiac lipid (in CHCl3) was placed in a glass flask and evaporated to dryness under nitrogen at room temperature; the flask was gently rotated during evaporation to yield a thin, dry lipid film. The lipid was taken up in 10 mM Hepes-0.145M CKl, pH 7.4, and was resuspended by indirect anaerobic sonication for 15 minutes at room temperature. The liposome suspension was used immediately.
A chelate was formed in Hepes-KCl buffer between Fe^3+ (1.0 mM FeCl3, final concentration) and ADP (10 mM, final concentration) at pH 7.4 with stirring at room temperature. Chelation was allowed to proceed for 90 minutes prior to use. The chelate was prepared fresh for each days experiments to ensure iron solubility, effective chelation, and valence state.
Malondialdehyde (MDA) equivalents were measured as thiobarbituric acid (TBA)-reactive material by the following modification of published methods. The reaction mixture, prepared fresh daily, contained water:BHT ([…] BHT in absolute ethanol):TBA (1.5% TBA in 0.2M Tris, pH 7.0) in the volume ratio 1:1:5. To each 1.0 ml of peroxidation reaction assayed (see below), 0.35 ml reaction mixture was added. After thorough mixing, the tubes were incubated in an 80° C. shaking water bath for 30 minutes. After this time, the tubes were plunged into an ice water bath, and the reaction was immediately stopped with 0.5 ml ice-cold 91% TCA followed by 2.0 ml CHCl3. After centrifugation for 30 minutes at 2000 rpm in a Sorval HL-8 rotor (4° C.), the absorbance of the washed, pink upper phase was read at 532 nm. A standard curve (0.8-40.0 nmol MDA) was run with every assay. For each curve, MDA was freshly prepared by acidification of 1,1,3,3-tetraethoxypropane with 75% TCA-2.3N HCl (0.15 ml acid mixture with 1.0 ml suitably diluted tetraethoxypropane). Computer-assisted regression analysis of the standard curve was used to quantify the molar amounts of MDA equivalents in the experimental samples.
Cardiac liposomes were subjected to superoxide-dependent, iron-promoted peroxidation in glass vessels to avoid the well-known antioxidant effects of many common polymerizing agents used to fabricate plastic labware. Screening was performed in triplicate in glass 12×75 mm tubes at a final reaction volume of 1.0 ml and a reaction time of 60 minutes. […]

Experiment [2] in a line: Antibiotic-Induced Colitis in Hamsters, In Vivo. The following applies: >1.0 = therapy prolongs survival, ** p < 0.01. On the set-up: species or system male Syrian hamsters (LUG). As for the experimental part:
Male Syrian hamsters (LUG), weighing 80 to 120 g were each given a single dose of 175 mg/kg of clindamycin-phosphate or of clindamycin-hydrochlorideintraperitoneally, to induce colitis. Approximately seven hours after injection, the animals were given the test compound orally or intraperitoneally and the therapy was continued twice a day for a period of four more days. For oral administration, the […] was suspended in water or dissolved in dimethylsulfoxide and delivered to the animals by gavage using an oral intubating needle. The effect of the therapy was measured by use of the Hazard Ratio, which is the ratio of the mortality of the animals treated with the test inhibitor compound contained in a vehicle to the mortality of the animals treated with the vehicle containing none of the test inhibitor compound. The mortality was determined for the test inhibitor compound-treated groups and for the vehicle-treated groups, respectively, twice daily, and was evaluated by comparing the survival curves of each group. The Kaplan-Meier estimate of the survival curve was calculated for each group and the Mantel-Cox (logrank) test was used to compare the survival curve of each test inhibitor compound-treated (therapy) group to that of the corresponding vehicle control group. […] (See, J. G. Bartlett et al. Amer. J. Vet. Res. 39: 1525-1530 (1978)).

For `CCCc1c(OCCCCc2cccc(O)c2O)ccc(C(C)=O)c1O` [1-[2-Hydroxy-4-[4-(2,3-dihydroxyphenyl)butoxy]-3-propylphenyl]ethanone], the IC50 (commonly the point on the concentration scale where inhibition reaches its midpoint) in experiment [1] is greater than 1 µM. `CCCc1c(OCCCCCCc2ccc(C(C)C)c(O)c2O)ccc(C(C)=O)c1O` [1-[2-hydroxy-4 [6-[2,3 dihydroxy-4-(1-methylethyl)phenyl]hexyloxy]-3 propylphenyl]ethanone]: the IC50 in experiment [1] was 0.7 µM. Same read-out and setting: to `CCCc1c(OCCCCCCc2cccc(O)c2O)ccc(C(C)=O)c1O` [1-[2-hydroxy-4-[6-(2,3-dihydroxyphenyl)hexyloxy]-3-propylphenyl]ethanone] belongs 0.7 µM. Take `CCCc1c(OCCCCc2cccc(O)c2O)ccc(C(=O)O)c1O` [4-[4-(2,3-dihydroxyphenyl)butoxy]-2-hydroxy-3-propylbenzoic acid]: the IC50 in experiment [1] was found to be 0.5 µM. For the same compound, the “Hamster Colitis Model Hazard Ratio” value in experiment [2] (10 mg/kg p.o) stood at 1.35; in experiment [2] (100 mg/kg p.o), 0.1. As for `CCCc1c(OCCCCCCc2cccc(O)c2O)ccc(C(=O)O)c1O` [4-[6-(2,3-Dihydroxyphenyl)hexyloxy]-2-hydroxy-3-propylbenzoic acid], the IC50 in experiment [1] turned out to be 0.3 µM. The “Hamster Colitis Model Hazard Ratio” value was 2.26 in experiment [2] (10 mg/kg p.o) and 4.22 in experiment [2] (100 mg/kg p.o).

Turning to `O=C(O)c1ccc(OCCCCCCc2cccc(O)c2O)cc1O` [4-[6-(2,3-Dihydroxyphenyl)hexyloxy]-2-hydroxybenzoic acid], the IC50 in experiment [1] was greater than 1 µM. As to `O=C(O)c1ccc(OCCCCCCc2cccc(O)c2O)cc1` [4-[6-(2,3-Dihydroxyphenyl)hexyloxy]benzoic acid], the IC50 in experiment [1] is greater than 1 µM. As to `CCCc1c(OCCCCCCc2ccc(O)c(O)c2)ccc(C(=O)O)c1O` [4-[6-(3,4-dihydroxyphenyl)hexyloxy]-2-hydroxy-3-propylbenzoic acid], the IC50 in experiment [1] was 0.6 µM. Consider `CCCc1c(OCCCCCCc2ccc(C(C)C)c(O)c2O)ccc(C(=O)O)c1O` [4-[6-[2,3-dihydroxy-4-(1-methylethyl)phenyl]hexyloxy]-2-hydroxy-3-propylbenzoic acid], for which the concentration for half-maximal inhibition (IC50) in experiment [1] was 0.7 µM.

As for `CCCc1c(OCCCCCCCCc2cccc(O)c2O)ccc(C(=O)O)c1O` [4-[8-(2,3-dihydroxyphenyl)octyloxy]-2-hydroxy-3-propylbenzoic acid], the IC50 in experiment [1] was 0.3 µM. Consider `CCCc1c(OCCCCCCCCCCc2cccc(O)c2O)ccc(C(=O)O)c1O` [4-[10-(2,3-dihydroxyphenyl)decyloxy]-2-hydroxy-3-propylbenzoic acid], for which the IC50 in experiment [1] amounted to 0.4 µM.

These data come from US5025036A, “Catechol carboxylic acids” (Hoffmann-La Roche Inc., priority 1989, dated 1991).
